Source: patent US20100189811A1, “Biocide compositions comprising 3-methylisothiazolin-3-one and a haloalkyl sulphone” (THOR GmbH, priority 2009, published 2010)

What was measured:
[1] = tested on: Pseudomonas aeruginosa (ATCC 9027); experiment: Minimum inhibitory concentration and synergy index in nutrient agar, visual test for growth; assay type: cell-based; conditions: 48 hours at 30° C.; for Synergy index Qa/QA + Qb/QB: method of Kull et al.
Method: (§1) The synergism of a combination of MIT with diiodomethyl p-tolyl sulphone was tested. Test organisms used were the Gram-negative bacterium Pseudomonas aeruginosa (ATCC 9027) and the mould Aspergillus niger (ATCC16404). For the purpose of the test, mixtures containing different concentrations of MIT and diiodomethyl p-tolyl sulphone were prepared and tested for their action on Pseudomonas aeruginosa and Aspergillus niger respectively. The active compound mixtures in the corresponding concentrations were introduced into selective nutrient media (nutrient agar for Pseudomonas aeruginosa and Sabouraud glucose agar for Aspergillus niger) and the test organisms were likewise incorporated into the agar. The cell density in the agar was in each case 10^6 microbes per ml in the case of Pseudomonas aeruginosa and 10^5 spores per ml in for Aspergillus niger.
(§2) The incubation time is 48 hours (bacteria) or 72 hours (moulds) at 30° C. and 25° C. respectively. This was followed by visual testing for growth of Pseudomonas aeruginosa and Aspergillus niger. In the case of Pseudomonas aeruginosa, growth was apparent by hazing or greenish coloration of the nutrient medium, or by formation of colonies on the surface of the agar. In the case of Aspergillus niger, the growth was apparent through the formation of colonies or mycelia on the surface of the agar. In this way the minimum inhibitory concentrations (MICs) of the two active compounds were determined, individually and in combination. The MIC is the concentration at which there is no longer any hazing, colouring of the agar or colony formation on the surface of the agar (Pseudomonas aeruginosa) and no formation of colonies or mycelia on the surface of the agar (Aspergillus niger).
(§3) The synergism that occurred was presented numerically by calculation of the synergy index (SI). This calculation was made using the common method of F. C. Kull et al., Applied Microbiology, vol. 9 (1961), p. 538. SI is calculated there in accordance with the following formula:
(§4) Synergy index SI=Qa/QA+Qb/QB
(§5) In the application of this formula to the MIT+DIMTS biocide system tested here, the variables in the formula have the following definition:
(§6) Qa=concentration of MIT in the mixture of diiodomethyl p-tolyl sulphone+MIT QA=concentration of MIT as sole biocide Qb=concentration of diiodomethyl p-tolyl sulphone in the biocide mixture QB=concentration of diiodomethyl p-tolyl sulphone as sole biocide
(§7) If the synergy index has a value of more than 1, this means that there is an antagonism.
(§8) If the synergy index adopts a value of 1, this means that the action of the two biocides is additive. If the synergy index takes on a value of below 1, this means that there is synergism of the two biocides.

[2] = tested on: Aspergillus niger (ATCC16404); experiment: Minimum inhibitory concentration and synergy index in Sabouraud glucose agar, visual test for growth; assay type: cell-based; conditions: 72 hours at 25° C.; for Synergy index Qa/QA + Qb/QB: method of Kull et al.
Method: as §1, §2, §3, §4, §5, §6, §7, §8

[3] = concentration of DIMTS (sole or in the mixture) that shows an endpoint
[4] = concentration of MIT (sole or in the mixture) which shows an endpoint

Row | SMILES | Synergy index Qa/QA + Qb/QB [1] | MHK Qb (DIMTS) [1, 3] [ppm] | Synergy index Qa/QA + Qb/QB [2] | MHK Qb (DIMTS) [2, 3] [ppm] | MHK Qa (MIT) [1, 4] [ppm] | MHK Qa (MIT) [2, 4] [ppm]
1 | Cc1ccc(S(=O)(=O)C(I)I)cc1 [DIMTS, diiodomethyl p-tolyl sulphone] | 1.00 | 1250 | 1.00 | 10 |  | 
2 | Cn1sccc1=O [MIT, 2-methylisothiazolin-3-one] | 1.00 |  | 1.00 |  | 40 | 800
